Where two headings read alike, the source gives them in different places.
How the values were obtained:
[1] = biological target: KRas G12C (Homo sapiens, UniProt P01116, C118S/C51S/C80L/G12C); experiment: KRas G12C Modification Assay (LCMS detection of covalent adduct); assay type: binding; details: 5 μM compound, 3 hours
Method: A 10 μL aliquot of each protein solution was then transferred to a 384 well microtiter plate. Initial compound stocks were generated at fifty times their desired final assay concentration in DMSO.
Exemplary compounds of Formula (I) were diluted 25-fold into K-Ras Assay Buffer to a final of two times their final concentration. A 10 μL aliquot of each diluted compound solution was then added to each of the protein solutions in the microtiter plate to initiate reaction. […] At each time point, the reactions were quenched with 20 μL of a 25 mM acetic acid solution. […] Once all reactions were quenched, the plates were heat sealed and the samples were injected into a LC/MS system for data acquisition.
Samples were injected in their liquid phase onto a C-3 reverse phase column to remove assay buffer and prepare the samples for mass spectrometer. The proteins were eluted from the column using an acetonitrile gradient and fed directly into the mass analyzer. Initial raw data analysis took place in Agilent MassHunter software immediately post data acquisition.
Raw data analysis of the intact protein was exclusively a deconvolution of the multiple charge states of each protein in solution using a maximum entropy deconvolution provided in Mass Hunter. To minimize complexity, only the data over limited mass ranges were considered for analysis, with a minimum of one Dalton mass step intervals. The heights of all masses identified during raw data analysis were exported to be further analyzed in Spotfire® data analysis software.
Final data analysis was a multistep process in the Spotfire® data analysis software package. Briefly, each protein mass was calculated as a percent of the total signal of that sample, that percentage was then normalized to the percentage of signal of the protein in the absence of reactive compounds. Those normalized signals were reported as normalized percent of control (POC). […] Key: “A”≤25% POC; “B”>25% POC≤50% POC; “C”>50% POC and ND=not determined.

[2] = system: Phospho-ERK in NCI-H358 cells expressing KRas G12C; experiment: Cellular inhibition of KRas G12C by Phospho-ERK measurement in NCI-H358 cells; assay type: cell-based; details: Homo sapiens, read-out: IC50 (pERK(Thr202/Tyr204) normalized with GAPDH)
Method in brief: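 After 8–12 h attachment, NCI-H358 cells were treated with compounds for 3 h (0.5% DMSO final), fixed, methanol-permeabilized and immunostained. pERK(Thr202/Tyr204) was read by infrared imaging and normalized to GAPDH as percent of DMSO control. IC50 came from a 4-parameter fit.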

[3] = NCI-H358 cells, 3 hours compound treatment

SMILES	POC (normalized percent of control, KRas G12C modification) [1]	IC50 [2, 3] [nM]	IC50 ([2]; NCI-H358, 3 h) [nM]
C=CC(=O)N1CCN(c2nc(OC[C@@H]3CCCN3C)nc3c2CCN(c2c(C)c(O)cc4ccccc24)C3)CC1 [Example 175, (S)-1-(4-(7-(3-hydroxy-2-methylnaphthalen-1-yl)-2-((1-methylpyrrolidin-2-yl)methoxy)-5,6,7,8-tetrahydropyrido[3,4-d]pyrimidin-4-yl)piperazin-1-yl)prop-2-en-1-one]	C (“C”>50% POC)	1 to 1000	
C=CC(=O)N1CCN(c2nc(OC[C@H]3CCCN3C)nc3c2CCN(c2cccc4ccccc24)C3)C[C@@H]1CC#N [Example 267, 2-((S)-1-acryloyl-4-(2-(((R)-1-methylpyrrolidin-2-yl)methoxy)-7-(naphthalen-1-yl)-5,6,7,8-tetrahydropyrido[3,4-d]pyrimidin-4-yl)piperazin-2-yl)acetonitrile]	C (“C”>50% POC)		1 to 1000
C=CC(=O)N1CCN(c2nc(OCCCN3C[C@H]4C[C@@H]3CO4)nc3c2CCN(c2cc(O)cc4ccccc24)C3)CC1 [Example 185, 1-(4-(2-(3-((1R,4R)-2-oxa-5-azabicyclo[2.2.1]heptan-5-yl)propoxy)-7-(3-hydroxynaphthalen-1-yl)-5,6,7,8-tetrahydropyrido[3,4-d]pyrimidin-4-yl)piperazin-1-yl)prop-2-en-1-one]	C (“C”>50% POC)	1 to 1000	
C=CC(=O)N1CCN(c2nc(OCCN(C)C)nc3c2CCN(c2cc(O)cc4ccccc24)C3)CC1CC#N (centres unmarked) [Example 170, 2-(1-acryloyl-4-(2-(2-(dimethylamino)ethoxy)-7-(3-hydroxynaphthalen-1-yl)-5,6,7,8-tetrahydropyrido[3,4-d]pyrimidin-4-yl)piperazin-2-yl)acetonitrile]	C (“C”>50% POC)	1 to 1000	
C=CC(=O)N1CCN(c2nc(OC[C@@H]3CCCN3CC3CC3)nc3c2CCN(c2cccc4ccccc24)C3)CC1CC#N (stereo partly drawn) [Example 257, 2-(1-acryloyl-4-(2-(((S)-1-(cyclopropylmethyl)pyrrolidin-2-yl)methoxy)-7-(naphthalen-1-yl)-5,6,7,8-tetrahydropyrido[3,4-d]pyrimidin-4-yl)piperazin-2-yl)acetonitrile]	C (“C”>50% POC)	1 to 1000	
C=CC(=O)N1CCN(c2nc(OCCCN3CCOCC3)nc3c2CCN(c2c(C(F)(F)F)ccc4[nH]ncc24)C3)CC1 [Example 180, 1-[4-[2-(3-morpholinopropoxy)-7-[5-(trifluoromethyl)-1H-indazol-4-yl]-6,8-dihydro-5H-pyrido[3,4-d]pyrimidin-4-yl]piperazin-1-yl]prop-2-en-1-one]	C (“C”>50% POC)	1 to 1000	
C=CC(=O)N1CCN(c2nc(OC[C@@H]3CCCN3C)nc3c2CCN(c2ccccc2C(F)(F)F)C3)CC1CC#N (stereo partly drawn) [Example 210, 2-(1-acryloyl-4-(2-(((S)-1-methylpyrrolidin-2-yl)methoxy)-7-(2-(trifluoromethyl)phenyl)-5,6,7,8-tetrahydropyrido[3,4-d]pyrimidin-4-yl)piperazin-2-yl)acetonitrile]	C (“C”>50% POC)	1 to 1000	
C=CC(=O)N1CCN(c2nc(OC[C@@H]3C[C@@H](F)CN3C)nc3c2CCN(c2cccc4ccccc24)C3)CC1CC#N (stereo partly drawn) [Example 220, 2-(1-acryloyl-4-(2-(((2S,4R)-4-fluoro-1-methylpyrrolidin-2-yl)methoxy)-7-(naphthalen-1-yl)-5,6,7,8-tetrahydropyrido[3,4-d]pyrimidin-4-yl)piperazin-2-yl)acetonitrile]	C (“C”>50% POC)	1 to 1000	
C=CC(=O)N1CCN(c2nc(OCCCO)nc3c2CCN(c2cccc4ccccc24)C3)CC1CC#N (centres unmarked) [Example 231, 2-(1-acryloyl-4-(2-(3-hydroxypropoxy)-7-(naphthalen-1-yl)-5,6,7,8-tetrahydropyrido[3,4-d]pyrimidin-4-yl)piperazin-2-yl)acetonitrile]	C (“C”>50% POC)	1 to 1000	
C=CC(=O)N1CCN(c2nc(OC[C@@H]3CCCN3C)nc3c2CCN(c2c(C(F)(F)F)ccc4[nH]ncc24)C3)CC1CC#N (stereo partly drawn) [Example 149, 2-[4-[2-[[(2S)-1-methylpyrrolidin-2-yl]methoxy]-7-[5-(trifluoromethyl)-1H-indazol-4-yl]-6,8-dihydro-5H-pyrido[3,4-d]pyrimidin-4-yl]-1-prop-2-enoyl-piperazin-2-yl]acetonitrile]	B (“B”>25% POC≤50% POC)	1 to 1000	
CC#CC(=O)N1CCN(c2nc(OC[C@@H]3CCCN3C)nc3c2CCN(c2cccc4ccccc24)C3)CC1CC#N (stereo partly drawn) [Example 242, 2-(1-(but-2-ynoyl)-4-(2-(((S)-1-methylpyrrolidin-2-yl)methoxy)-7-(naphthalen-1-yl)-5,6,7,8-tetrahydropyrido[3,4-d]pyrimidin-4-yl)piperazin-2-yl)acetonitrile]	C (“C”>50% POC)		1 to 1000
C=CC(=O)N1CCN(c2nc(OC[C@@H]3CCCN3C)nc3c2CCN(c2cccc4ccccc24)C3)C[C@@H]1CC#N [Example 234, 2-((S)-1-acryloyl-4-(2-(((S)-1-methylpyrrolidin-2-yl)methoxy)-7-(naphthalen-1-yl)-5,6,7,8-tetrahydropyrido[3,4-d]pyrimidin-4-yl)piperazin-2-yl)acetonitrile]	C (“C”>50% POC)		1 to 1000
C=CC(=O)N1CCN(c2nc(O[C@H](C)CN(C)CC)nc3c2CCN(c2cc(O)cc4ccccc24)C3)CC1 [Example 131, 1-[4-[2-[(1R)-2-[ethyl(methyl)amino]-1-methyl-ethoxy]-7-(3-hydroxy-1-naphthyl)-6,8-dihydro-5H-pyrido[3,4-d]pyrimidin-4-yl]piperazin-1-yl]prop-2-en-1-one]	C (“C”>50% POC)	1 to 1000	
C=CC(=O)N1CCN(c2nc(OC[C@@H]3CCCN3C)nc3c2CCN(c2c(C)ccc4[nH]ncc24)C3)CC1CC#N (stereo partly drawn) [Example 148, 2-[4-[7-(5-methyl-1H-indazol-4-yl)-2-[[(2S)-1-methylpyrrolidin-2-yl]methoxy]-6,8-dihydro-5H-pyrido[3,4-d]pyrimidin-4-yl]-1-prop-2-enoyl-piperazin-2-yl]acetonitrile]	C (“C”>50% POC)	1 to 1000	
C=CC(=O)N1CCN(c2nc(OC[C@@H]3CCCN3C)nc3c2CCN(c2c(C)ccc4[nH]ncc24)C3)CC1 [Example 155, (S)-1-(4-(7-(5-methyl-1H-indazol-4-yl)-2-((1-methylpyrrolidin-2-yl)methoxy)-5,6,7,8-tetrahydropyrido[3,4-d]pyrimidin-4-yl)piperazin-1-yl)prop-2-en-1-one]	C (“C”>50% POC)	1 to 1000	
C=CC(=O)N1CCN(c2nc(OC[C@@H]3CCN(C)C3)nc3c2CCN(c2cccc4ccccc24)C3)CC1CC#N (stereo partly drawn) [Example 177, 2-[4-[2-[[(3R)-1-methylpyrrolidin-3-yl]methoxy]-7-(1-naphthyl)-6,8-dihydro-5H-pyrido[3,4-d]pyrimidin-4-yl]-1-prop-2-enoyl-piperazin-2-yl]acetonitrile]	C (“C”>50% POC)	1 to 1000	
C=CC(=O)N1CCN(c2nc(OC[C@@H]3CCCN3C)nc3c2CCN(c2cc(O)cc4ccccc24)C3)CC1CC#N (stereo partly drawn) [Example 182, 2-[4-[7-(3-hydroxy-1-naphthyl)-2-[[(2S)-1-methylpyrrolidin-2-yl]methoxy]-6,8-dihydro-5H-pyrido[3,4-d]pyrimidin-4-yl]-1-prop-2-enoyl-piperazin-2-yl]acetonitrile]	C (“C”>50% POC)	1 to 1000	
C=CC(=O)N1CCN(c2nc(OC[C@@H]3CCCN3C)nc3c2CCN(c2c(F)c(O)cc4ccccc24)C3)CC1 [Example 249, 1-[4-[7-(2-fluoro-3-hydroxy-1-naphthyl)-2-[[(2S)-1-methylpyrrolidin-2-yl]methoxy]-6,8-dihydro-5H-pyrido[3,4-d]pyrimidin-4-yl]piperazin-1-yl]prop-2-en-1-one]	C (“C”>50% POC)	1 to 1000	
C=CC(=O)N1CCN(c2nc(OC[C@H]3CCCN3C)nc3c2CCN(c2cccc4ccccc24)C3)CC1CC#N (stereo partly drawn) [Example 183, 2-[4-[2-[[(2R)-1-methylpyrrolidin-2-yl]methoxy]-7-(1-naphthyl)-6,8-dihydro-5H-pyrido[3,4-d]pyrimidin-4-yl]-1-prop-2-enoyl-piperazin-2-yl]acetonitrile]	C (“C”>50% POC)		1 to 1000

— US11267812B2 (Mirati Therapeutics, Inc., priority 2016, dated 2022)
